Reference: ChEMBL document CHEMBL1201862, “PubChem BioAssay data set” (2004)
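Tested at 5 concentrations; 48 h exposure; 96-well plates; endpoints linearly interpolated, else capped at highest concentration. GI50 is the concentration that inhibits growth by half.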 Active and inactive are the calls of the source. Rule as the data show it: active = GI50 up to about 1.1 µM and inactive = higher.

Key:
Experiment in all cases: NCI tumour cell line growth inhibition, 48 h
T47D = system: T47D
SN12C = system: SN12C
NCI-H460 = system: NCI-H460
OVCAR-8 = system: OVCAR-8
OVCAR-3 = system: OVCAR-3
TK-10 = system: TK-10
M14 = system: M14
RXF 393 = system: RXF 393
HOP-92 = system: HOP-92
Malme-3M = system: Malme-3M
Hs-578T = system: Hs-578T
UO-31 = system: UO-31
MDA-MB-231 = system: MDA-MB-231
U-251 = system: U-251
SK-OV-3 = system: SK-OV-3
BT-549 = system: BT-549
NCI-H522 = system: NCI-H522
SK-MEL-5 = system: SK-MEL-5
SR = system: SR

Structure (SMILES)	GI50 (T47D)	GI50 (SN12C)	GI50 (NCI-H460)	GI50 (OVCAR-8)	GI50 (OVCAR-3)	GI50 (TK-10)	GI50 (M14)	GI50 (RXF 393)	GI50 (HOP-92)	GI50 (Malme-3M)	GI50 (Hs-578T)	GI50 (UO-31)	GI50 (MDA-MB-231)	GI50 (U-251)	GI50 (SK-OV-3)	GI50 (BT-549)	GI50 (NCI-H522)	GI50 (SK-MEL-5)	GI50 (SR)
O=C1NN=C(c2c[nH]c3ccccc23)CC1NCc1ccccc1 (stereo not given)	> 100 µM (inactive)	> 100 µM (inactive)	> 100 µM (inactive)	> 100 µM (inactive)	> 100 µM (inactive)	> 100 µM (inactive)	> 100 µM (inactive)	> 100 µM (inactive)	> 100 µM (inactive)	> 100 µM (inactive)	> 100 µM (inactive)	> 100 µM (inactive)	> 100 µM (inactive)	> 100 µM (inactive)	> 100 µM (inactive)	> 100 µM (inactive)	> 100 µM (inactive)	> 100 µM (inactive)	–
CO/N=C(\C)c1cccc(Nc2nc3ccccc3c3occc23)c1	11.1 µM (inactive)	13.3 µM (inactive)	11.8 µM (inactive)	17.1 µM (inactive)	16.3 µM (inactive)	12.7 µM (inactive)	16.7 µM (inactive)	12.4 µM (inactive)	6.3 µM (inactive)	15.7 µM (inactive)	10.9 µM (inactive)	< 0.01 µM (active)	10.4 µM (inactive)	15.9 µM (inactive)	14.1 µM (inactive)	13.5 µM (inactive)	–	14.8 µM (inactive)	11.9 µM (inactive)
CC[C@](C)(O)C(=O)O[C@H]1C(=O)O[C@@H]2C[C@H]3C(C)=CC(=O)[C@@H](O)[C@]3(C)[C@H]3[C@@]4(O)OC[C@]32[C@@H]1[C@@H](C)[C@H]4O [GLAUCARUBINONE]	0.176 µM (active)	0.158 µM (active)	0.0912 µM (active)	0.0753 µM (active)	0.0982 µM (active)	0.39 µM (active)	0.107 µM (active)	0.05 µM (active)	0.049 µM (active)	–	0.167 µM (active)	0.378 µM (active)	0.946 µM (active)	0.05 µM (active)	1.02 µM (active)	0.229 µM (active)	–	0.0442 µM (active)	0.0453 µM (active)
CCSc1nc(C)nc2c1sc1nc3ccccc3n12	> 100 µM (inactive)	> 100 µM (inactive)	> 100 µM (inactive)	> 100 µM (inactive)	> 100 µM (inactive)	> 100 µM (inactive)	> 100 µM (inactive)	> 100 µM (inactive)	> 100 µM (inactive)	–	24.2 µM (inactive)	> 100 µM (inactive)	> 100 µM (inactive)	> 100 µM (inactive)	> 100 µM (inactive)	> 100 µM (inactive)	> 100 µM (inactive)	> 100 µM (inactive)	> 100 µM (inactive)
Oc1ccc(SCc2cc(O)ccc2O)cc1	8.39 µM (inactive)	10.2 µM (inactive)	28.9 µM (inactive)	16.5 µM (inactive)	7.69 µM (inactive)	18.4 µM (inactive)	18.4 µM (inactive)	11.9 µM (inactive)	22.3 µM (inactive)	19.5 µM (inactive)	27.9 µM (inactive)	6.05 µM (inactive)	16.5 µM (inactive)	14.5 µM (inactive)	30.2 µM (inactive)	3.81 µM (inactive)	1.79 µM (inactive)	10 µM (inactive)	–
Cc1oc2nc(N(C)C)nc(Cl)c2c1C	46.7 µM (inactive)	> 100 µM (inactive)	> 100 µM (inactive)	> 100 µM (inactive)	> 100 µM (inactive)	> 100 µM (inactive)	> 100 µM (inactive)	40.6 µM (inactive)	25.2 µM (inactive)	–	> 100 µM (inactive)	26.8 µM (inactive)	> 100 µM (inactive)	> 100 µM (inactive)	–	> 100 µM (inactive)	> 100 µM (inactive)	> 100 µM (inactive)	–
CC1OC(OC2C(O[C@@H]3C[C@@H]4CC[C@@H]5[C@H](CC[C@]6(C)[C@@H]7[C@H](C[C@@H]56)O[C@]5(CC[C@@H](C)CO5)[C@H]7C)[C@@]4(C)C[C@H]3O)OC(CO)C(OC3OC(CO)C(O)C(O)C3O)C2O)C(O)C(O)C1O (stereo not given in full)	3.66 µM (inactive)	1.68 µM (inactive)	1.76 µM (inactive)	1.52 µM (inactive)	1.65 µM (inactive)	–	1.69 µM (inactive)	2.01 µM (inactive)	2.51 µM (inactive)	1.29 µM (inactive)	2.02 µM (inactive)	2.12 µM (inactive)	1.8 µM (inactive)	1.81 µM (inactive)	1.69 µM (inactive)	2.23 µM (inactive)	1.1 µM (active)	1.55 µM (inactive)	–
N=c1c2c3n(c4c(=O)n(-c5ccccc5)c(=S)n(c(=O)n1-c1ccccc1)c24)CCCCC3	55.6 µM (inactive)	> 100 µM (inactive)	> 100 µM (inactive)	> 100 µM (inactive)	> 100 µM (inactive)	> 100 µM (inactive)	> 100 µM (inactive)	> 75.7 µM (inactive)	> 100 µM (inactive)	> 100 µM (inactive)	> 100 µM (inactive)	> 100 µM (inactive)	> 100 µM (inactive)	> 100 µM (inactive)	> 81.1 µM (inactive)	> 100 µM (inactive)	> 100 µM (inactive)	> 100 µM (inactive)	–
